From patent US9539336B2, “Sialic acid derivatives” (priority 2012, dated 2017)

Key:
CD22 (Siglec-2) [1] = molecular target: T1, CD22 (Siglec-2) (Homo sapiens, UniProt P20273); settings: Table II; affinity to CD22, BPC NeuAc = 1; cited from earlier work
T1 sequence (P20273 20-847): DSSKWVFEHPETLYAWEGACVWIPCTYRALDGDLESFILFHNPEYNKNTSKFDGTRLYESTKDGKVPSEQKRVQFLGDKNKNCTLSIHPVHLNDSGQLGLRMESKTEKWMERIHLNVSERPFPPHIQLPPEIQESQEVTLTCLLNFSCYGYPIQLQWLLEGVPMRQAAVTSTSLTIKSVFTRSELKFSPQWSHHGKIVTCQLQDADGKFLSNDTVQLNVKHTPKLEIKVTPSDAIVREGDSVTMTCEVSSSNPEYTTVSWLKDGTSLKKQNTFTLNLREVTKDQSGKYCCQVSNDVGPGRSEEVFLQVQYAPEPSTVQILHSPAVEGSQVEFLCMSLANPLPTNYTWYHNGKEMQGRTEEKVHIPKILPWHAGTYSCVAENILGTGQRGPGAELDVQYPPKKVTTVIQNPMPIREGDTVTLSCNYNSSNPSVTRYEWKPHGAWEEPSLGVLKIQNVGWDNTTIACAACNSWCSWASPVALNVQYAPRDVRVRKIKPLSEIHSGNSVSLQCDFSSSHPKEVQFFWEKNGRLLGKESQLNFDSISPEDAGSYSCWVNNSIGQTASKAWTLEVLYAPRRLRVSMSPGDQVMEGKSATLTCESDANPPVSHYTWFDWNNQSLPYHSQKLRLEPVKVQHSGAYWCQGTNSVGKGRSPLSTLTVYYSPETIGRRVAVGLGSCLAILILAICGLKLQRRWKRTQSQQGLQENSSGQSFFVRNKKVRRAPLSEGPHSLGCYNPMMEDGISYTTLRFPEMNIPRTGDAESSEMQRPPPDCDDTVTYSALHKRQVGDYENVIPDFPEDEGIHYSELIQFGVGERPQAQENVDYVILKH

CD22 (Siglec-2) [2] = molecular target: T1, CD22 (Siglec-2); test: New assay: displacement of biotin conjugate 35 from sialidase-treated Daudi cells, measured by FACS; assay type: binding; design: endogenous in cells; host or cells: Daudi (human B cell lymphoma line); settings: Table II, IC50 values converted into rIP, BPC NeuAc = 1, 2 μmolar substance 35
Description: In order to be able to determine the affinity of the novel derivatives to CD22, a new assay was developed. For this assay, compound 35 (conjugate of a sialic acid derivative of the formula (I) and biotin) was prepared.
To determine the affinity of the compound of the formula (I), approximately 2×10^8 cells of the human B cell lymphoma line “Daudi” were incubated with sialidase (A. ureafaciens) for 1 h at 37° C. Subsequently, the enzyme was blocked with 1.5 mM 2,3-dehydroNeu5Ac and the cells were washed twice with PBS. Batches of 1-2×10^6 cells were transferred to sample vials and incubated on ice for 15 min with serial concentrations (10-fold dilutions) of the substance to be measured (inhibitor) and then for 20 min with 2 μmolar substance 35. The reaction volume was 50 μl. After washing with PBS, the sample was incubated for 15 min with Streptavidin-PE in the dark, then washed and the amount of substance 35 bound via Streptavadin-PE was measured by FACS. For the determination of 0% displacement of substance 35, cells without inhibitor were measured. For the determination of 100% displacement, cells were measured without substance 35 and without inhibitor. 4 substances and one reference substance were measured per assay. The IC50 values determined in each assay were subsequently converted into rIP values. For this purpose, substance 46 served as reference. […]

SMILES | rIP (Literature assay) (CD22 (Siglec-2) [1]) | rIP (New assay) (CD22 (Siglec-2) [2])
CO[C@]1(C(=O)[O-])C[C@H](O)[C@@H](NC(C)=O)[C@H]([C@H](O)[C@H](O)CNC(=O)c2ccc(-c3ccccc3)cc2)O1.[Na+] [BPC NeuAc] | 1 | 1
COC(=O)CCCCCO[C@@H]1O[C@H](CO)[C@@H](O[C@@H]2O[C@H](CO[C@]3(C(=O)[O-])C[C@H](O)[C@@H](NC(C)=O)[C@H]([C@H](O)[C@H](O)CNC(=O)c4ccc(-c5ccccc5)cc4)O3)[C@H](O)[C@H](O)[C@H]2O)[C@H](O)[C@H]1NC(C)=O.[Na+] [BPC NeuAc- LN] | 15.9 | –
